In patent US12209102B2, “Heterocyclic compounds and uses thereof” (Kumquat Biosciences Inc., priority 2022, dated 2025):

Columns and labels:
SW620 cells = test: Ras cellular assay, growth of cells with K-Ras G12V mutation (CellTiter-Glo); assay type: cell-based; conditions: Homo sapiens, SW-620; cell growth, Example 9, G12V mutation; read-out: IC50 against SW620 cells
Experimental: For example, this assay can be also used to assess a selective growth inhibition of a mutant Ras protein relative to a wildtype, or relative to a different mutant Ras protein.
SW620 (ATCC CCL-227) and Capan-1 (ATCC HTB-79) cell lines comprise a G12V mutation and can be used to assess Ras cellular signaling in vitro, e.g., in response to the compounds herein. SW620 culture medium is prepared with RPMI-1640 and 10% heat-inactivated FBS. Capan-1 culture medium is prepared with RPMI-1640 and 10% heat-inactivated FBS. A CellTiter-Glo (CTG) luminescent based assay (Promega) is used to assess growth of the cells, as a measurement of the ability of the compounds herein to inhibit Ras signaling in the cells. The cells (e.g., 800 per well) are seeded in their respective culture medium in standard tissue culture-treated 384-well format plates (Falcon #08-772-116) or ultra-low attachment surface 384-well format plates (S-Bio #MS-9384WZ). The day after plating, cells are treated with a dilution series (e.g., a 10 point 3-fold dilution series) of the compounds herein (e.g., approximately 40 μL final volume per well). Cell viability can be monitored (e.g., approximately 6 days later) according to the manufacturer's recommended instructions, where the CellTiter-Glo reagent is added (e.g., approximately 10 μL), vigorously mixed, covered, and placed on a plate shaker (e.g., approximately for 20 min) to ensure sufficient cell lysis prior to assessment of luminescent signal. The IC50 values are determined using the four parameter fit. The resulting IC50 value is a measurement of the ability of the compounds herein to reduce cell growth of Ras-driven cells (e.g., tumor cell lines) in vitro and/or in vivo.

K-Ras G12D = target: T1, K-Ras G12D (Homo sapiens, UniProt P01116, G12D); test: HTRF resonance energy transfer assay, K-Ras G12D / SOS1 interaction; assay type: biochemical; conditions: HTRF assay of Example 5; read-out: IC50 against K-Ras G12D
T1 construct: made in house; host or cells: E. coli BL21 (DE3)
T1 sequence (P01116 1-188 isoform P01116-2 G12D): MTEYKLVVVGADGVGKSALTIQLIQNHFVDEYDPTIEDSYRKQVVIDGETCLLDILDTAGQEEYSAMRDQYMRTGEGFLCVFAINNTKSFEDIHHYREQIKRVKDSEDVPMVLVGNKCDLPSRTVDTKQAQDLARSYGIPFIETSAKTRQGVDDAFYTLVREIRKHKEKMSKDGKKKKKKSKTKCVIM
Summary of the method: (§1)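 Buffer about 5 mM HEPES pH 7.4 with ~150 mM NaCl, ~1 mM DTT, 0.05% BSA, 0.0025% (v/v) Igepal. Protein constructs used at molarity matching the IC50 range studied (e.g. ~500 nM). FRET between tagged K-Ras and hSOS1 measured after short incubation.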

K-Ras WT = target: T2, K-Ras WT (Homo sapiens, UniProt P01116); test: HTRF resonance energy transfer assay, K-Ras WT / SOS1 interaction; assay type: biochemical; conditions: HTRF assay of Example 5; read-out: IC50 against K-Ras WT
T2 construct: made in house; host or cells: E. coli BL21 (DE3)
T2 sequence (P01116 1-188 isoform P01116-2): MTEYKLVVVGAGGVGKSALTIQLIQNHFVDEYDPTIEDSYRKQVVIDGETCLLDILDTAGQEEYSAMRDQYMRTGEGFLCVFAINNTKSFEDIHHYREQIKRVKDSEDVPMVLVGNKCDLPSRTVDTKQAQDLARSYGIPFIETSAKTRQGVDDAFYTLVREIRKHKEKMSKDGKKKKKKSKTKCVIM
Summary of the method: as §1

K-Ras G12S = target: T3, K-Ras G12S (Homo sapiens, UniProt P01116, G12S); test: HTRF resonance energy transfer assay, K-Ras G12S / SOS1 interaction; assay type: biochemical; conditions: HTRF assay of Example 5; read-out: IC50 against K-Ras G12S
T3 construct: made in house; host or cells: E. coli BL21 (DE3)
T3 sequence (P01116 1-188 isoform P01116-2 G12S): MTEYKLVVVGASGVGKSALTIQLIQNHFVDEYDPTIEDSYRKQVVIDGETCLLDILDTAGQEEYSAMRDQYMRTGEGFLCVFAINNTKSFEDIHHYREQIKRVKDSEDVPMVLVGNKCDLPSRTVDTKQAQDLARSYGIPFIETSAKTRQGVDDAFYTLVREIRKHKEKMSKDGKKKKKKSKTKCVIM
Summary of the method: as §1

K-Ras G12V = target: T4, K-Ras G12V (Homo sapiens, UniProt P01116, G12V); test: HTRF resonance energy transfer assay, K-Ras G12V / SOS1 interaction; assay type: biochemical; conditions: HTRF assay of Example 5; read-out: IC50 against K-Ras G12V
T4 construct: made in house; host or cells: E. coli BL21 (DE3)
T4 sequence (P01116 1-188 isoform P01116-2 G12V): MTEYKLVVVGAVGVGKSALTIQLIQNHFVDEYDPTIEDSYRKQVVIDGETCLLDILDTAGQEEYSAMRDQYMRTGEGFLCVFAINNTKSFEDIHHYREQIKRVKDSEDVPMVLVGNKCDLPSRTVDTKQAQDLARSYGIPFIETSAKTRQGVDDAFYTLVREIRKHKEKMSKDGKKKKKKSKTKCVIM
Summary of the method: as §1

Row | IC50 (K-Ras G12D) [nM] | IC50 (K-Ras WT) [nM] | IC50 (K-Ras G12S) [nM] | IC50 (K-Ras G12V) [nM] | SMILES | IC50 (SW620 cells) [nM]
1 | < 100 | < 100 | < 100 | < 100 | N#Cc1c(N)sc2c(F)ccc(-c3c(Cl)c4c5c(nc(OC[C@@]67CCCN6C[C@H](F)C7)nc5c3F)N(CC(F)F)[C@@H](C3CC(C#N)C3)CO4)c12 (stereo partly drawn) [Compound 753, 2-amino-4-((S)-8-chloro-5-(3-cyanocyclobutyl)-4-(2,2-difluoroethyl)-10-fluoro-2-(((2R,7aS)-2-fluorotetrahydro-1H-pyrrolizin-7a(5H)-yl)methoxy)-5,6-dihydro-4H-[1,4]oxazepino[5,6,7-de]quinazolin-9-yl)-7-fluorobenzo[b]thiophene-3-carbonitrile] | –
2 | < 100 | < 100 | < 100 | < 100 | C#Cc1c(F)ccc2cc(O)cc(-c3nc4c5c(nc(OC[C@@]67CCCN6C[C@H](F)C7)nc5c3F)N(C3CCNC3)CCO4)c12 (stereo partly drawn) [Compound 939, 5-ethynyl-6-fluoro-4-(4-fluoro-2-(((2R,7aS)-2-fluorotetrahydro-1H-pyrrolizin-7a(5H)-yl)methoxy)-10-(pyrrolidin-3-yl)-9,10-dihydro-8H-7-oxa-1,3,6,10-tetraazacyclohepta[de]naphthalen-5-yl)naphthalen-2-ol] | –
3 | < 100 | < 100 | < 100 | < 100 | N#Cc1c(N)sc2c(F)ccc(-c3c(Cl)c4c5c(nc(OC[C@@]67CCCN6C[C@H](F)C7)nc5c3F)N(Cc3ccn[nH]3)CCO4)c12 [Compound 1023, 4-(4-((1H-pyrazol-5-yl)methyl)-8-chloro-10-fluoro-2-(((2R,7aS)-2-fluorotetrahydro-1H-pyrrolizin-7a(5H)-yl)methoxy)-5,6-dihydro-4H-[1,4]oxazepino[5,6,7-de]quinazolin-9-yl)-2-amino-7-fluorobenzo[b]thiophene-3-carbonitrile] | –
4 | < 100 | < 100 | < 100 | < 100 | Nc1nc2c(-c3c(Cl)c4c5c(nc(OC[C@@]67CCCN6C[C@H](F)C7)nc5c3F)N(C3CCNCC3)CCO4)ccc(F)c2s1 [Compound 898, 4-(8-chloro-10-fluoro-2-(((2R,7aS)-2-fluorotetrahydro-1H-pyrrolizin-7a(5H)-yl)methoxy)-4-(piperidin-4-yl)-5,6-dihydro-4H-[1,4]oxazepino[5,6,7-de]quinazolin-9-yl)-7-fluorobenzo[d]thiazol-2-amine] | –
5 | < 100 | < 100 | < 100 | < 100 | N#Cc1c(N)sc2c(F)ccc(-c3c(Cl)c4c5c(nc(OC[C@@]67CCCN6C[C@H](F)C7)nc5c3F)N(C3CNC3)CCO4)c12 [Compound 828, 2-amino-4-(4-(azetidin-3-yl)-8-chloro-10-fluoro-2-(((2R,7aS)-2-fluorotetrahydro-1H-pyrrolizin-7a(5H)-yl)methoxy)-5,6-dihydro-4H-[1,4]oxazepino[5,6,7-de]quinazolin-9-yl)-7-fluorobenzo[b]thiophene-3-carbonitrile] | –

More lines, now with the values behind:

Row | SMILES | IC50 (K-Ras G12D) [nM] | IC50 (K-Ras WT) [nM] | IC50 (K-Ras G12S) [nM] | IC50 (K-Ras G12V) [nM] | IC50 (SW620 cells) [nM]
6 | N#Cc1c(N)sc2c(F)ccc(-c3c(Cl)c4c5c(nc(OC[C@@]67CCCN6C[C@H](F)C7)nc5c3F)N(C3CCCCN(C(=O)C5CN5)C3)CCO4)c12 (stereo partly drawn) [Compound 992, 2-amino-4-(4-(1-(aziridine-2-carbonyl)azepan-3-yl)-8-chloro-10-fluoro-2-(((2R,7aS)-2-fluorotetrahydro-1H-pyrrolizin-7a(5H)-yl)methoxy)-5,6-dihydro-4H-[1,4]oxazepino[5,6,7-de]quinazolin-9-yl)-7-fluorobenzo[b]thiophene-3-carbonitrile] | – | – | – | – | < 5000
7 | C#C[C@H]1COc2c(Cl)c(-c3ccc(F)c4sc(N)c(C#N)c34)c(F)c3nc(OC[C@@]45CCCN4C[C@H](F)C5)nc(c23)N1CC(F)F [Compound 1075, 2-amino-4-((5S)-8-chloro-4-(2,2-difluoroethyl)-5-ethynyl-10-fluoro-2-(((2R,7aS)-2-fluorotetrahydro-1H-pyrrolizin-7a(5H)-yl)methoxy)-5,6-dihydro-4H-[1,4]oxazepino[5,6,7-de]quinazolin-9-yl)-7-fluorobenzo[b]thiophene-3-carbonitrile] | < 100 | < 100 | < 100 | < 100 | –
8 | N#Cc1c(N)sc2c(F)ccc(-c3c(Cl)c4c5c(nc(OC[C@@]67CCCN6C[C@H](F)C7)nc5c3F)N(C3CC35CCNC5)CCO4)c12 (stereo partly drawn) [Compound 735, 2-amino-4-(8-chloro-10-fluoro-2-(((2R,7aS)-2-fluorotetrahydro-1H-pyrrolizin-7a(5H)-yl)methoxy)-4-(5-azaspiro[2.4]heptan-1-yl)-5,6-dihydro-4H-[1,4]oxazepino[5,6,7-de]quinazolin-9-yl)-7-fluorobenzo[b]thiophene-3-carbonitrile] | < 100 | < 100 | < 100 | < 100 | –
9 | N#Cc1c(N)sc2c(F)ccc(-c3c(Cl)c4c5c(nc(OC[C@@]67CCCN6C[C@H](F)C7)nc5c3F)N(CC(F)F)[C@@H](C3CC3C#N)CO4)c12 (stereo partly drawn) [Compound 1078, 2-amino-4-((5S)-8-chloro-5-(2-cyanocyclopropyl)-4-(2,2-difluoroethyl)-10-fluoro-2-(((2R,7aS)-2-fluorotetrahydro-1H-pyrrolizin-7a(5H)-yl)methoxy)-5,6-dihydro-4H-[1,4]oxazepino[5,6,7-de]quinazolin-9-yl)-7-fluorobenzo[b]thiophene-3-carbonitrile] | < 100 | < 100 | < 100 | < 100 | –
10 | N#Cc1c(N)sc2c(F)ccc(-c3c(Cl)c4c5c(nc(OC[C@@]67CCCN6C[C@H](F)C7)nc5c3F)N(C3CCOC3)C(C3(C#N)CC3)CO4)c12 (stereo partly drawn) [Compound 913, 2-amino-4-(8-chloro-5-(1-cyanocyclopropyl)-10-fluoro-2-(((2R,7aS)-2-fluorotetrahydro-1H-pyrrolizin-7a(5H)-yl)methoxy)-4-(tetrahydrofuran-3-yl)-5,6-dihydro-4H-[1,4]oxazepino[5,6,7-de]quinazolin-9-yl)-7-fluorobenzo[b]thiophene-3-carbonitrile] | < 100 | < 100 | < 100 | < 100 | –
11 | C#Cc1c(F)ccc2cc(O)cc(-c3nc4c5c(nc(OC[C@@]67CCCN6C[C@H](F)C7)nc5c3F)N(C3CCN(C=O)C3)CCO4)c12 (stereo partly drawn) [Compound 1019, 3-(5-(8-ethynyl-7-fluoro-3-hydroxynaphthalen-1-yl)-4-fluoro-2-(((2R,7aS)-2-fluorotetrahydro-1H-pyrrolizin-7a(5H)-yl)methoxy)-8,9-dihydro-10H-7-oxa-1,3,6,10-tetraazacyclohepta[de]naphthalen-10-yl)pyrrolidine-1-carbaldehyde] | < 100 | < 100 | < 100 | < 100 | –
12 | N#Cc1c(N)sc2c(F)ccc(-c3c(Cl)c4c5c(nc(OC[C@@]67CCCN6C[C@H](F)C7)nc5c3F)N(C3CCN(C5CC5)C3)CCO4)c12 (stereo partly drawn) [Compound 631, 2-amino-4-(8-chloro-4-(1-cyclopropylpyrrolidin-3-yl)-10-fluoro-2-(((2R,7aS)-2-fluorotetrahydro-1H-pyrrolizin-7a(5H)-yl)methoxy)-5,6-dihydro-4H-[1,4]oxazepino[5,6,7-de]quinazolin-9-yl)-7-fluorobenzo[b]thiophene-3-carbonitrile] | < 100 | < 100 | < 100 | < 100 | –
13 | N#Cc1c(N)sc2c(F)ccc(-c3c(Cl)c4c5c(nc(OC[C@@]67CCCN6C[C@H](F)C7)nc5c3F)N(CC(F)F)C(CO)CO4)c12 (stereo partly drawn) [Compound 840, 2-amino-4-(8-chloro-4-(2,2-difluoroethyl)-10-fluoro-2-(((2R,7aS)-2-fluorotetrahydro-1H-pyrrolizin-7a(5H)-yl)methoxy)-5-(hydroxymethyl)-5,6-dihydro-4H-[1,4]oxazepino[5,6,7-de]quinazolin-9-yl)-7-fluorobenzo[b]thiophene-3-carbonitrile] | < 100 | < 100 | < 100 | < 100 | –
